Data taken from patent US6855730B2, “3-methylidenyl-2-indolinone modulators of protein kinase” (Sugen, Inc., priority 1998, dated 2005).
pIC50: −log10 of the molar value.

biological target: T1, 3T3 cell line genetically engineered to express human EGF-R (Homo sapiens, UniProt P00533); assay: EGF-induced BrdU incorporation assay; format: cell-based; settings: read-out: BrdU EGF driven IC50
T1 construct: expressed in transfected cells; host or cells: 3T3
Procedure: The cellular/catalytic assays described herein are performed in an ELISA format. The general procedure is as follows: a compound is introduced to cells expressing the test kinase, either naturally or recombinantly, for a selected period of time after which, if the test kinase is a receptor, a ligand known to activate the receptor is added. The cells are lysed and the lysate is transferred to the wells of an ELISA plate previously coated with a specific antibody recognizing the substrate of the enzymatic phosphorylation reaction. Non-substrate components of the cell lysate are washed away and the amount of phosphorylation on the substrate is detected with an antibody specifically recognizing phosphotyrosine compared with control cells that were not contacted with a test compound. The cellular/biologic assays described herein measure the amount of DNA made in response to activation of a test kinase, which is a general measure of a proliferative response. The general procedure for this assay is as follows: a compound is introduced to cells expressing the test kinase, either naturally or recombinantly, for a selected period of time after which, if the test kinase is a receptor, a ligand known to activate the receptor is added. After incubation at least overnight, a DNA labeling reagent such as Bromodeoxyuridine (BrdU) or 3H-thymidine is added. The amount of labeled DNA is detected with either an anti-BrdU antibody or by measuring radioactivity and is compared to control cells not contacted with a test compound. […]
Protocol • (1) Cells are seeded at 8000 cells/well in 10% CS, 2mM Gin in DMEM, in a 96 well plate. Cells are incubated overnight at 37° C. in 5% CO2. • (2) After 24 hours, the cells are washed with PBS, and then are serum starved in serum free medium (0% CS DMEM with 0.1% BSA) for 24 hours. • (3) On day 3, ligand (EGF, 2 nM, prepared in DMEM with 0.1% BSA) and test compounds are added to the cells simultaneously. The negative control wells receive serum free DMEM with 0.1% BSA only, the positive control cells receive the ligand (EGF) but no test compound. Test compounds are prepared in serum free DMEM with ligand in a 96 well plate, and serially diluted for 7 test concentrations. • (4) After 20 hours of ligand activation, diluted BrdU labeling reagent (1:100 in DMEM, 0.1% BSA) is added and the cells are incubated with BrdU (final concentration=10 μM) for 1.5 hours. • (5) After incubation with labeling reagent, the medium is removed by decanting and tapping the inverted plate on a paper towel. FixDenat solution is added (50 μl/well) and the plates are incubated at room temperature for 45 minutes on a plate shaker. • (6) The FixDenat solution is thoroughly removed by decanting and tapping the inverted plate on a paper towel. Milk is added (5% dehydrated milk in PBS, 200 μl/well) as a blocking solution and the plate is incubated for 30 minutes at room temperature on a plate shaker. • (7) The blocking solution is removed by decanting and the wells are washed once with PBS. Anti-BrdU-POD solution (1:100 dilution in PBS, 1% BSA) is added (100 μ/well) and the plate is incubated for 90 minutes at room temperature on a plate shaker. • (8) The antibody conjugate is thoroughly removed by decanting and rinsing the wells 5 times with PBS, and the plate is dried by inverting and tapping on a paper towel. • (9) TMB substrate solution is added (100 μl/well) and incubated for 20 minutes at room temperature on a plate shaker until color development is sufficient for photometric detection. • (10) The absorbance of the samples are measured at 410 nm (in “dual wavelength” mode with a filter reading at 490 nm, as a reference wavelength) on a Dynatech ELISA plate reader.

First: COc1ccc(C=C2C(=O)Nc3cc(NC(C)=O)ccc32)cc1-c1cccc(NC(C)=O)c1 (mixture of isomers) [Example 63, N-[3-(3′-Acetylamino-6-methoxybiphenyl-3-ylmethylene)-2-oxo-2,3-dihydro-1H-indol-6-yl]-acetamide]
Second: COc1ccc(/C=C2/C(=O)Nc3cc(NC(C)=O)ccc32)cc1-c1ccsc1 [Example 18, N-[3-(4-Methoxy-3-thiophene-3-ylbenzylidene)-2-oxo-2,3-dihydro-1H-indol-6-yl]-acetamide]
The pIC50 of the first is higher: 4.52 for the first, under 4.30 for the second. The first is the more potent here.

`CC1(C)CCc2cc(C=C3C(=O)Nc4ccc(Br)cc43)ccc2O1` (racemic) [Example 34, 5-Bromo-3-(2,2-dimethylchroman-6-ylmethylene)-1,3-dihydroindol-2-one] and `CC1(C)CCc2cc(/C=C3/C(=O)Nc4ccc(Cl)cc43)ccc2O1` [Example 15, 5-Chloro-3-(2,2-dimethyl-chroman-6-ylmethylene)-1,3-dihydroindol-2-one] are within 0.2 log units of each other in pIC50: 4.96 for the first, 5.11 for the second.

First: COc1c(C(C)C)cc(/C=C2/C(=O)Nc3cc(NC(C)=O)ccc32)cc1C(C)C [Example 3, N-[3-(3,5-Diisopropyl-4-methoxybenzylidene)-2-oxo-2,3-dihydro-1H-indol-6-yl]-acetamide]
Second: COc1c(C(C)C)cc(/C=C2/C(=O)Nc3cc(O)ccc32)cc1C(C)C [Example 4, 3-(3,5-Diisopropyl-4-methoxybenzylidene)-6-hydroxy-1,3-dihydroindol-2-one]
The pIC50 of the first is 0.38 log units higher: 4.96 for the first, 4.58 for the second.

Going from `COc1c(C(C)C)cc(/C=C2/C(=O)Nc3ccc(C(C)=O)cc32)cc1C(C)C` [Example 5, 5-Acetyl-3-(3,5-diisopropyl-4-methoxybenzylidene)-1,3dihydroindol-2-one] to `COC(=O)c1ccc2c(c1)/C(=C\c1cc(C(C)C)c(OC)c(C(C)C)c1)C(=O)N2` [Example 6, 3-(3,5-Diisopropyl-4-methoxybenzylidene)-2-oxo-2,3-dihydro-1H-indole-5-carboxylic acid methyl ester], the pIC50 falls from 5.14 to 4.92 (0.22 log units).

First: COc1ccc(/C=C2/C(=O)Nc3ccccc32)cc1C(C)C [Example 7, 3-(3-Isopropyl-4-methoxybenzylidene)-1,3-dihydroindol-2-one]
Second: COc1cc(C)c(C=C2C(=O)Nc3ccccc32)cc1C(C)C [Example 8, 3-(5-Isopropyl-4-methoxy-2-methylbenzylidene)-1,3-dihydroindol-2-one]
The pIC50 of the first is higher: 4.61 for the first, under 4.30 for the second.

First: COc1cc(C)c(C=C2C(=O)Nc3ccc(Cl)cc32)cc1C(C)C [Example 9, 5-Chloro-3-(5-isopropyl-4-methoxy-2-methylbenzylidene)-1,3-dihydroindol-2-one]
Second: COc1cc(C)c(C=C2C(=O)Nc3cc(NC(C)=O)ccc32)cc1C(C)C [Example 27, N-[3-(5-Isopropyl-4-methoxy-2-methyl-benzylidene)-2-oxo-2,3-dihydro-1H-indol-6-yl]-acetamide]
The pIC50 of the first is 0.39 log units higher: 4.96 for the first, 4.57 for the second. The first is the more potent here.

`COc1ccc(/C=C2/C(=O)Nc3ccccc32)cc1C1CCCC1` [Example 10, 3-(3-Cyclopentyl-4-methoxybenzylidene)-1,3-dihydroindol-2-one] and `COc1ccc(/C=C2/C(=O)Nc3ccccc32)cc1C1CCCCC1` [Example 12, 3-(3-Cyclohexyl-4-methoxybenzylidene)-1,3-dihydroindol-2-one] are within 0.2 log units of each other in pIC50: 4.54 for the first, 4.51 for the second.

Compared with `COc1ccc(/C=C2/C(=O)Nc3ccc(Br)cc32)cc1-c1ccccc1` [Example 13, 5-Bromo-3-(6-methoxybiphenyl-3-ylmethylene)-1,3-dihydroindol-2-one], `COc1ccc(/C=C2/C(=O)Nc3ccc(CCN4CCOCC4)cc32)cc1-c1ccsc1` [Example 26, 3-(4-Methoxy-3-thiophen-3-ylbenzylidene)-5-(2-morpholin-4-yl-ethyl)-1,3-dihydroindol-2-one] is lower in pIC50: 4.58 for the first, under 4.30 for the second. The first is the more potent here.

`CC(=O)Nc1ccc2c(c1)NC(=O)/C2=C/c1ccc(OCCN2CCOCC2)c(C2CCCCC2)c1` [Example 16, N-{3-[3-Cyclohexyl-4-(2-morpholin-4-ylethoxy)-benzylidene]-2-oxo-2,3-dihydro-1H-indol-6-yl}-acetamide] and `CC(C)c1cc(/C=C2/C(=O)Nc3ccc(Cl)cc32)cc(C(C)C)c1OCCN1CCOCC1` [Example 24, 5-chloro-3-[3,5-diisopropyl-4-(2-morpholin-4-ylethoxy)-benzylidene]-1,3-dihydroindol-2-one] are within 0.2 log units of each other in pIC50: 5.19 for the first, 5.12 for the second.

`COc1ccc2c(c1)/C(=C\c1cc(C(C)C)c(OC)c(C(C)C)c1)C(=O)N2` [Example 17, 3-(3,5-Diisopropyl-4-methoxybenzylidene)-5-methoxy-1,3-dihydroindol-2-one] and `COc1c(C(C)C)cc(/C=C2/C(=O)Nc3ccc(C)cc32)cc1C(C)C` [Example 19, 3-(3,5-Diisopropyl-4-methoxybenzylidene)-5-methyl-1,3-dihydroindol-2-one] are within 0.2 log units of each other in pIC50: 5.13 for the first, 5.03 for the second.

First: COc1c(C(C)C)cc(/C=C2/C(=O)Nc3ccc(N)cc32)cc1C(C)C [Example 20, 5-Amino-3-(3,5-diisopropyl-4-methoxy-benzylidene)-1,3-dihydroindol-2-one]
Second: COc1c(C)cc(/C=C2/C(=O)Nc3ccc(Cl)cc32)cc1C [Example 21, 5-Chloro-3-(4-methoxy-3,5-dimethylbenzylidene)-1,3-dihydroindol-2-one]
The pIC50 of the first is 0.58 log units lower: 4.52 for the first, 5.10 for the second. The second is the more potent here.

Molecule `CC1(C)CCc2cc(/C=C3/C(=O)Nc4ccc(F)cc43)ccc2O1` [Example 23, 3-(2,2-Dimethylchroman-6-ylmethylene)-5-fluoro-1,3-dihydroindol-2-one] has a pIC50 of 4.48.

biological target: Myc-GyrB-FGFR fusion protein (Homo sapiens, UniProt P11362); assay: Biochemical FGFR assay (ELISA); settings: read-out: bio fgfR1 IC50
Sequence (P11362 478-767 limits assumed): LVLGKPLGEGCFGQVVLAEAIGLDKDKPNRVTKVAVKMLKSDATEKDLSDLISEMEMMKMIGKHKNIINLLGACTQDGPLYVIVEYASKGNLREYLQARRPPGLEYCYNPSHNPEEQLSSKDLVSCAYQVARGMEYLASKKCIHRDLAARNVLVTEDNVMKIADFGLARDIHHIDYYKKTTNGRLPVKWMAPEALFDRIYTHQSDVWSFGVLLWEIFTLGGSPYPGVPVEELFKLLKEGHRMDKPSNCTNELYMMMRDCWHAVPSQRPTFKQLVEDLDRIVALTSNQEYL
Procedure: This assay measures in vitro kinase activity of the Myc-GyrB-FGFR fusion protein using ELISA.
Materials and Reagents • 1. HNTG
PBS (Dulbecco's Phosphate-Buffered Saline, Gibco Catalog # 450-1300EB). • 3. Blocking Buffer. • 4. Kinase Buffer.
Working solution: 100 mM in ethanol. • 6.
ABTS Solution. • 10. Hydrogen peroxide 30% solution ( Fisher Catalog # H325). • 11. ABTS/H2O2. • 12. 0.2 M HCl. • 13.
Prepare 1.0 mM solution in MilliQ H2O, adjust pH to 7.2 with HCl. • 14.
Prepare 5 M solution in MilliQ H2O. • 15. MgCl, (Fisher Cat. No. M33-500).
Prepare 1 M solution in MilliQ H2O. • 16. HEPES (Fisher Cat. No. BP310-500).
Prepare 1 M solution in MilliQ H2O, adjust pH to 7.5, sterile filter. • 17. TBST Buffer. • 18. Sodium Carbonate Buffer (Fisher Cat. No. S495).
Prepare 0.1 M solution in MilliQ H2O, adjust pH to 9.6 with NaOH, filter. • 19. Dithiothreitol (DTT, Fisher Cat. No. BP172-25).
Prepare 0.5 mM working solution in MilliQ H2O just prior to-use. Store at −20° C. until used, discard any leftover. • 20. MnCl2. • 21. Triton X-100. • 22. Goat α-Rabbit IgG (Cappel). • 23. Affinity purified Rabbit α GST GyrB (Biochemistry Lab. SUGEN, Inc.).
All of the following steps are conducted at room temperature unless otherwise indicated. • 1. Coat Corning 96-well ELISA plates with 2 μg Goat α-Rabbit antibody per well in Carbonate Buffer such that total well volume is 100 μl. Store overnight at 40° C. • 2. Remove unbound Goat a-Rabbit antibody by inverting plate to remove liquid. Pat plate on a paper towel to remove excess liquid and bubbles • 3.. Add 150 μl Blocking Buffer (5% Low Fat Milk in PBS) to each well. Incubate while shaking on a micro-titer plate shaker for 30 min. • 4. Wash 4× with TBST. Pat plate on a paper towel to remove excess liquid and bubbles. • 5. Add 0.5 μg Rabbit α-GyrB antibody per well. Dilute antibody in DPBS to a final volume of 100 μl per well. Incubate with shaking on a micro-titer plate shaker at room temperature for 1 hour. • 6. Wash 4× with TBST as described in step 4. • 7. Add 2 μg COS/FGFR cell lysate (Myc-GyrB-FGFR source) in HNTG to each well to give a final volume of 100 μl per well. Incubate with shaking on a micro-titer plate shaker for 1 hour. • 8. Wash 4× with TBST as described in step 4. • 9. Add 80 μl of 1× kinase buffer per well. • 10. […] Transfer 10 μ l of diluted test compound solution and control wells from polypropylene plate wells to the corresponding ELISA plate wells, incubate with shaking on a micro-titer plate shaker for 20 minutes. • 12. Add 10 μl of 70 μM ATP diluted in kinase buffer to positive control and test wells (Final ATP concentration is 7 EM/well). Add 10 μl 1× kinase buffer to negative control wells. Incubate with shaking on a micro-titer plate shaker for 15 min. • 13. Stop kinase reaction by adding 5 μl 0.5 M EDTA to all wells. • 14. Wash 4× with TBST as described in step 4. • 15. Add 100 μl biotin conjugated α-phosphotyrosine mab (b4G10) diluted in TBST to each well. Incubate with shaking on a micro-titer plate shaker for 30 minutes. • 16. Prepare Vectastain ABC reagent. […] Mix by inverting tube several times. Add 1 drop reagent B and mix again. • 17. Wash 4× with TBST as described in step 4. • 18. Add 100 μl ABC HRP reagent to each well. Incubate with shaking on a micro-titer plate shaker for 30 minutes. • 19. Wash 4× with TBST as described in step 4. • 20. Add 100 μl of ABTS/H2O2 solution to each well. • 22. Incubate 5 to 15 minutes with shaking. Remove any bubbles. • 23. If necessary stop reaction by adding 1 00 μl of 0.2M HCl/well. • 24.

Going from `Cc1cc(CCC(=O)O)c(/C=C2\C(=O)Nc3cc(-c4ccc(F)cc4)ccc32)[nH]1` [Example 107, 3-{2-[6-(4-Fluorophenyl)-2-oxo-1,2-dihydroindol-3-ylidenemethyl]-5-methyl-1H-pyrrol-3-yl}propionic acid] to `COc1ccccc1-c1ccc2c(c1)NC(=O)/C2=C\c1[nH]c(C)cc1CCC(=O)O` [Example 109, 3-{2-[6-(2-Methoxyphenyl)-2-oxo-1,2-dihydroindol-3-ylidenemethyl]-5-methyl-1H-pyrrol-3-yl}-propionic acid], the pIC50 falls from 5.21 to under 4.70.

Compared with `CCOC(=O)c1c(C)[nH]c(/C=C2\C(=O)Nc3cc(-c4ccc(F)cc4)ccc32)c1CCC(=O)O` [Example 108, 4-(2-Carboxyethyl)-5-[6-(4-fluorophenyl)-2-oxo-1,2-dihydro-indol-3-ylidenemethyl]-2-methyl-1H-pyrrole-3-carboxylic acid ethyl ester], `CCOC(=O)c1c(C)[nH]c(/C=C2\C(=O)Nc3cc(-c4ccccc4OC)ccc32)c1CCC(=O)O` [Example 110, 4-(2-Carboxyethyl)-5-[6-(2-methoxyphenyl)-2-oxo-1,2-dihydro-indol-3-ylidenemethyl]-2-methyl-1H-pyrrol-3-yl-carboxylic acid ethyl ester] is 0.83 log units lower in pIC50: 5.59 for the first, 4.76 for the second.

First: Cc1cc(CCC(=O)O)c(/C=C2\C(=O)Nc3ccc(Cl)cc32)[nH]1 [Example 111, 3-[2-(5-Chloro-2-oxo-1,2-dihydroindol-3-ylidenemethyl)-5-methyl-1H-pyrrol-3-yl]propionic acid]
Second: O=C1Nc2ccc(Br)cc2/C1=C/c1cc2ccccc2[nH]1 [Example 165, 5-Bromo-3-(1H-indol-2-ylmethylene)-1,3-dihydro-indol-2-one]
The pIC50 of the first is higher: 6.33 for the first, under 4.70 for the second. The first is the more potent here.

Work on `Cc1cccc2c1/C(=C/c1cc3ccccc3[nH]1)C(=O)N2` [Example 166, 3-(1H-indol-2-ylmethylene)-4-methyl-1,3-dihydro-indol-2-one] yielded a pIC50 of under 4.70.

biological target: T2, flkGST (Homo sapiens, UniProt P35968); assay: bio flkGST assay; format: biochemical; settings: not given
T2 construct: GST
T2 sequence (P35968 786-1356 limits assumed): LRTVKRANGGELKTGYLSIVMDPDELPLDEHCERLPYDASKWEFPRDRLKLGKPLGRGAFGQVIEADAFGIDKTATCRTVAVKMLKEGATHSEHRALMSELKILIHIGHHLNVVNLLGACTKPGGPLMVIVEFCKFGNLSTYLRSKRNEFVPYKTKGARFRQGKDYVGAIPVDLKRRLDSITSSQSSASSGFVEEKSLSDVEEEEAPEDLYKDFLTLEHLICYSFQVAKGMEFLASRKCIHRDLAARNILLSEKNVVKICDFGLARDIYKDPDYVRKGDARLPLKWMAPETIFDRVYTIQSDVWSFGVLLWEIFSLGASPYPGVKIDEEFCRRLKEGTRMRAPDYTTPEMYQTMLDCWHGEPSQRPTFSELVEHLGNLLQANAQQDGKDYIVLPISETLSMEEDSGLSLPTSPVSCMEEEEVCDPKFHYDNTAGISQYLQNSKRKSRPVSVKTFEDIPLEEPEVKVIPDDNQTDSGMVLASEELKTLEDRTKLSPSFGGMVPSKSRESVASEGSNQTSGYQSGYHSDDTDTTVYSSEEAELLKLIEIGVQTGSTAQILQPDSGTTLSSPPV

In order of falling pIC50:
1. Cc1cc(CCC(=O)O)c(/C=C2\C(=O)Nc3ccc(Cl)cc32)[nH]1 [Example 111, 3-[2-(5-Chloro-2-oxo-1,2-dihydroindol-3-ylidenemethyl)-5-methyl-1H-pyrrol-3-yl]propionic acid]  6.37
2. CCOC(=O)c1c(C)[nH]c(/C=C2\C(=O)Nc3cc(-c4ccc(F)cc4)ccc32)c1CCC(=O)O [Example 108, 4-(2-Carboxyethyl)-5-[6-(4-fluorophenyl)-2-oxo-1,2-dihydro-indol-3-ylidenemethyl]-2-methyl-1H-pyrrole-3-carboxylic acid ethyl ester]  5.97
3. Cc1cc(CCC(=O)O)c(/C=C2\C(=O)Nc3cc(-c4ccc(F)cc4)ccc32)[nH]1 [Example 107, 3-{2-[6-(4-Fluorophenyl)-2-oxo-1,2-dihydroindol-3-ylidenemethyl]-5-methyl-1H-pyrrol-3-yl}propionic acid]  5.67
4. COc1ccccc1-c1ccc2c(c1)NC(=O)/C2=C\c1[nH]c(C)cc1CCC(=O)O [Example 109, 3-{2-[6-(2-Methoxyphenyl)-2-oxo-1,2-dihydroindol-3-ylidenemethyl]-5-methyl-1H-pyrrol-3-yl}-propionic acid]  5.57
5. CCOC(=O)c1c(C)[nH]c(/C=C2\C(=O)Nc3cc(-c4ccccc4OC)ccc32)c1CCC(=O)O [Example 110, 4-(2-Carboxyethyl)-5-[6-(2-methoxyphenyl)-2-oxo-1,2-dihydro-indol-3-ylidenemethyl]-2-methyl-1H-pyrrol-3-yl-carboxylic acid ethyl ester]  5.52
